# Earlier results in patent US20240424024A1, “PHARMACEUTICAL COMPOSITION AND KIT COMPRISING AN IMMUNOMODULATORY SUBSTANCE FOR TREATING DISEASES” (ellennbe GmbH, priority 2021, published 2024).
# System: perfusion of the skin
# Conditions: 50 μl of 20 mmol/l MN, healthy subjects, Laser Speckle Contrast Imager; Elawa et al. 2020
structure (smiles),measurement,value
COC(=O)c1cccnc1 [methyl nicotinate],perfusion increase of the skin after topical application,reaches a stable plateau phase after five minutes
